pIC50: −log10 of the molar value.
target: T1, Recombinant human H-PGDS (Homo sapiens, UniProt O60760); test: H-PGDS inhibitory activity (prostaglandin D2 production from prostaglandin H2, measured by LC-MS/MS); type: biochemical; settings: recombinant human H-PGDS 1.0 nM expressed in E. coli; prostaglandin H2 25 μM; preincubated 15 minutes on ice, reacted on ice for 1 minute; concentration that inhibits prostaglandin D2 production by 50%
T1 construct: made in house; host or cells: E. coli
Summary of the method: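 Recombinant human H-PGDS (E. coli-expressed, 1.0 nM final) preincubated with compound 15 min on ice in 20 mM Tris-HCl pH 8.0, 2 mM MgCl2, 2 mM GSH, 0.5 mg/mL γ-globulin. Reaction with 25 µM PGH2 run 1 min on ice, stopped with FeCl2/citric acid, PGD2 quantified by LC-MS/MS. Activity expressed as % of DMSO control after subtracting non-enzymatic PGD2.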

T1 sequence (O60760 whole entry): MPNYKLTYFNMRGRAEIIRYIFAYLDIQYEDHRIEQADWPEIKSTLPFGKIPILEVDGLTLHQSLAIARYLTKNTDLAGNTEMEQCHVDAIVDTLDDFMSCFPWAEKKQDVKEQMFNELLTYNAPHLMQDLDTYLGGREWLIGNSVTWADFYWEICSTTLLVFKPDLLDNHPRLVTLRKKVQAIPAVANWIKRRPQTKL

Structure (SMILES)	pIC50
CC(C)N(CCNC(=O)c1ccc(-c2nccc3[nH]ccc23)cc1)C(C)C [Example 25, N-[2-(diisopropylamino)ethyl]-4-(1H-pyrrolo[3,2-c]pyridin-4-yl)benzamide]	8.80
CCOC(=O)c1cnc(N2CCC(NC(=O)c3ccc(-c4nccc5occc45)cc3)CC2)nc1 [Example 158, Ethyl 2-{4-[4-(furo[3,2-c]pyridin-4-yl)benzamide]piperidin-1-yl}pyrimidine-5-carboxylate]	9.16
COCCn1cc(CNC(=O)c2ccc(-c3nccc4[nH]ccc34)cc2)cn1 [Example 48, N-{[1-(2-methoxyethyl)-1H-pyrazol-4-yl]methyl}-4-(1H-pyrrolo[3,2-c]pyridin-4-yl)benzamide]	9.14
CC(C)(O)[C@H]1CC[C@H](NC(=O)c2ccc(-c3nc(C#N)cc4occc34)cc2)CC1 [Example 317, 4-(6-cyanofuro[3,2-c]pyridin-4-yl)-N-[trans-4-(2-hydroxypropan-2-yl)cyclohexyl]benzamide]	7.29
CC(C)(O)[C@H]1CC[C@H](NC(=O)c2ccc(-c3nc(CO)cc4occc34)c(F)c2)CC1 [Example 322, 3-fluoro-4-[6-(hydroxymethyl)furo[3,2-c]pyridin-4-yl]-N-[trans-4-(2-hydroxypropan-2-yl)cyclohexyl]benzamide]	8.49
NS(=O)(=O)c1ccc(CCNC(=O)c2ccc(-c3nccc4[nH]ccc34)cc2)cc1 [Example 47, 4-(1H-pyrrolo[3,2-c]pyridin-4-yl)-N-(4-sulfamoylphenethyl) benzamide]	8.96
CC(C)(O)[C@H]1CC[C@H](NC(=O)c2ccc(-c3nccc4occc34)c(F)c2)CC1 [Example 125, 3-fluoro-4-(furo[3,2-c]pyridin-4-yl)-N-[trans-4-(2-hydroxypropan-2-yl)cyclohexyl]benzamide]	8.66
Cn1cncc1CNC(=O)c1ccc(-c2nccc3[nH]ccc23)cc1 [Example 41, N-[(1-methyl-1H-imidazol-5-yl)methyl]-4-(1H-pyrrolo[3,2-c]pyridin-4-yl)benzamide]	9.20
Cn1c(N2CCC(NC(=O)c3ccc(-c4nccc5occc45)cc3)CC2)cccc1=O [Example 184, 4-(furo[3,2-c]pyridin-4-yl)-N-[1-(1-methyl-6-oxo-1,6-dihydropyridin-2-yl)piperidin-4-yl]benzamide]	8.68
O=C(NC1CCC(N2CCC(F)(F)CC2)CC1)c1ccc(-c2nccc3occc23)cc1 (stereo not shown) [Example 307, N-[4-(4,4-difluoropiperidin-1-yl)cyclohexyl]-4-(furo[3,2-c]pyridin-4-yl)benzamide]	8.66
Cc1cccc(N2CCC(NC(=O)c3ccc(-c4nccc5occc45)cc3)CC2)n1 [Example 152, 4-(furo[3,2-c]pyridin-4-yl)-N-[1-(6-methylpyridin-2-yl)piperidin-4-yl]benzamide]	8.64
O=C(N[C@H]1CC[C@H](O)CC1)c1ccc(-c2nccc3sccc23)cc1 [Example 341, N-(trans-4-hydroxycyclohexyl)-4-(thieno[3,2-c]pyridin-4-yl)benzamide]	8.62
Cn1ccc(CNC(=O)c2ccc(-c3nccc4[nH]ccc34)cc2)n1 [Example 53, N-[(1-methyl-1H-pyrazol-3-yl)methyl]-4-(1H-pyrrolo[3,2-c]pyridin-4-yl)benzamide]	8.89
CC(O)c1cnc(-c2ccc(C(=O)N[C@H]3CC[C@H](C(C)(C)O)CC3)cc2)c2ccoc12 (stereo partly drawn) [Example 141, 4-[7-(1-hydroxyethyl)furo[3,2-c]pyridin-4-yl]-N-[trans-4-(2-hydroxypropan-2-yl)cyclohexyl]benzamide]	6.80

Second part, the molecule after the results:

pIC50	Structure (SMILES)
7.57	COCCCNC(=O)c1ccc(-c2nccc3occc23)cc1 [Example 79, 4-(furo[3,2-c]pyridin-4-yl)-N-(3-methoxypropyl) benzamide]
7.92	O=C(NCc1ccc(Cl)cc1)c1ccc(-c2nccc3occc23)cc1 [Example 70, N-(4-chlorobenzyl)-4-(furo[3,2-c]pyridin-4-yl)benzamide]
7.82	O=C(NCCCCCCO)c1ccc(-c2nccc3occc23)cc1 [Example 90, 4-(furo[3,2-c]pyridin-4-yl)-N-(6-hydroxyhexyl) benzamide]
9.00	O=C(NC1CCN(c2nccs2)CC1)c1ccc(-c2nccc3occc23)cc1 [Example 101, 4-(furo[3,2-c]pyridin-4-yl)-N-[1-(thiazol-2-yl)piperidin-4-yl]benzamide]
8.92	O=C(NC1CCN(c2nncs2)CC1)c1ccc(-c2nccc3occc23)cc1 [Example 237, N-[1-(1,3,4-thiadiazol-2-yl)piperidin-4-yl]-4-(furo[3,2-c]pyridin-4-yl)benzamide]
8.85	CC(=O)NCCNC(=O)c1ccc(-c2nccc3[nH]ccc23)cc1 [Example 28, N-(2-acetamidoethyl)-4-(1H-pyrrolo[3,2-c]pyridin-4-yl)benzamide]
7.72	O=C(Nc1cc(-c2ccccc2)[nH]n1)c1ccc(-c2nccc3occc23)cc1 [Example 100, 4-(furo[3,2-c]pyridin-4-yl)-N-(5-phenyl-1H-pyrazol-3-yl)benzamide]
7.49	CCC(O)CNC(=O)c1ccc(-c2nccc3occc23)cc1 (stereo not shown) [Example 91, 4-(furo[3,2-c]pyridin-4-yl)-N-(2-hydroxybutyl) benzamide]
8.52	O=C(NC1CCN(c2ncc(F)cn2)CC1)c1ccc(-c2nccc3occc23)cc1 [Example 157, N-[1-(5-fluoropyrimidin-2-yl)piperidin-4-yl]-4-(furo[3,2-c]pyridin-4-yl)benzamide]
8.21	O=C(NC1CCN(c2cnc(CO)cn2)CC1)c1ccc(-c2nccc3occc23)cc1 [Example 170, 4-(furo[3,2-c]pyridin-4-yl)-N-{1-[5-(hydroxymethyl)pyrazin-2-yl]piperidin-4-yl}benzamide]
8.80	Cc1cnc(N2CCC(NC(=O)c3ccc(-c4nccc5occc45)cc3)CC2)nc1 [Example 156, 4-(furo[3,2-c]pyridin-4-yl)-N-[1-(5-methylpyrimidin-2-yl)piperidin-4-yl]benzamide]
8.72	O=C(N[C@H]1CCN(c2ccc(Cl)nn2)C1)c1ccc(-c2nccc3occc23)cc1 [Example 228, (S)—N-[1-(6-chloropyridazin-3-yl)pyrrolidin-3-yl]-4-(furo[3,2-c]pyridin-4-yl)benzamide]
8.82	O=C(N[C@H]1CCN(c2ccnc(F)c2)C1)c1ccc(-c2nccc3occc23)cc1 [Example 196, (S)-N-[1-(2-fluoropyridin-4-yl)pyrrolidin-3-yl]-4-(furo[3,2-c]pyridin-4-yl)benzamide]
9.34	CC(=O)NCCCCNC(=O)c1ccc(-c2nccc3[nH]ccc23)cc1 [Example 29, N-(4-acetamidobutyl)-4-(1H-pyrrolo[3,2-c]pyridin-4-yl)benzamide]
8.40	O=C(N[C@H]1CC[C@H](N2CCCC2=O)CC1)c1ccc(-c2nccc3occc23)cc1 [Example 299, 4-(furo[3,2-c]pyridin-4-yl)-N-[trans-4-(2-oxopyrrolidin-1-yl)cyclohexyl]benzamide]
8.89	O=C(NC1CCN(c2ccnc(Cl)c2)CC1)c1ccc(-c2nccc3occc23)cc1 [Example 165, N-[1-(2-chloropyridin-4-yl)piperidin-4-yl]-4-(furo[3,2-c]pyridin-4-yl)benzamide]
7.77	O=C(NCCCCO)c1ccc(-c2nccc3occc23)cc1 [Example 96, 4-(furo[3,2-c]pyridin-4-yl)-N-(4-hydroxybutyl) benzamide]

Reference: patent US20230339937A1, “CONDENSED RING COMPOUNDS THAT INHIBIT H-PGDS” (SATO PHARMACEUTICAL CO., LTD., priority 2020, published 2023)
